Laboratory results: ChEMBL document CHEMBL1201862, “PubChem BioAssay data set” (2004)
Calls of active or inactive are those of the source.

Key:
[1] = biological target: T1, Oxysterols receptor LXR-beta (Homo sapiens, UniProt P55055); assay type: functional, cell-based;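 note: Cell-based luminescence dose-response assay of agonist activity at LXR, run as a confirmatory counterscreen to a daf-12 agonist screen; HEK293 cells with Gal4-LXR fusion and GAL4-driven luciferase reporter; agonist potency from rising luciferase signal of a Gal4-LXR reporter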
T1 sequence (P55055 whole entry): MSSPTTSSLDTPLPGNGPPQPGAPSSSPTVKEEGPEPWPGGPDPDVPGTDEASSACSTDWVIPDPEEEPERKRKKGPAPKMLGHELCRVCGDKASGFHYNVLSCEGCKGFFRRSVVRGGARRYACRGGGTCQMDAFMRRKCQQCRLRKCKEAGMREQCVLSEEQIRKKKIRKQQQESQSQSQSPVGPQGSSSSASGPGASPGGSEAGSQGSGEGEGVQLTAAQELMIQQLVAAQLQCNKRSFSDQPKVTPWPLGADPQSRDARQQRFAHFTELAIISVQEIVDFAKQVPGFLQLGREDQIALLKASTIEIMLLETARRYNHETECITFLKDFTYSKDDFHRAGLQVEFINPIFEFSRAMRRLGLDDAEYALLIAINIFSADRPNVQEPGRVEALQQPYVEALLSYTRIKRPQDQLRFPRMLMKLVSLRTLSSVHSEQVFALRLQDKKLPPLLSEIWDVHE

Genome polyprotein = Genome polyprotein (dengue virus type 2, UniProt P29990); test: flavivirus cap methylation enzyme inhibition – biochemical, confirmation dose response, primary screen (AID 588689); assay type: functional
Genome polyprotein, sequence (P29990 2492-3391 limits assumed): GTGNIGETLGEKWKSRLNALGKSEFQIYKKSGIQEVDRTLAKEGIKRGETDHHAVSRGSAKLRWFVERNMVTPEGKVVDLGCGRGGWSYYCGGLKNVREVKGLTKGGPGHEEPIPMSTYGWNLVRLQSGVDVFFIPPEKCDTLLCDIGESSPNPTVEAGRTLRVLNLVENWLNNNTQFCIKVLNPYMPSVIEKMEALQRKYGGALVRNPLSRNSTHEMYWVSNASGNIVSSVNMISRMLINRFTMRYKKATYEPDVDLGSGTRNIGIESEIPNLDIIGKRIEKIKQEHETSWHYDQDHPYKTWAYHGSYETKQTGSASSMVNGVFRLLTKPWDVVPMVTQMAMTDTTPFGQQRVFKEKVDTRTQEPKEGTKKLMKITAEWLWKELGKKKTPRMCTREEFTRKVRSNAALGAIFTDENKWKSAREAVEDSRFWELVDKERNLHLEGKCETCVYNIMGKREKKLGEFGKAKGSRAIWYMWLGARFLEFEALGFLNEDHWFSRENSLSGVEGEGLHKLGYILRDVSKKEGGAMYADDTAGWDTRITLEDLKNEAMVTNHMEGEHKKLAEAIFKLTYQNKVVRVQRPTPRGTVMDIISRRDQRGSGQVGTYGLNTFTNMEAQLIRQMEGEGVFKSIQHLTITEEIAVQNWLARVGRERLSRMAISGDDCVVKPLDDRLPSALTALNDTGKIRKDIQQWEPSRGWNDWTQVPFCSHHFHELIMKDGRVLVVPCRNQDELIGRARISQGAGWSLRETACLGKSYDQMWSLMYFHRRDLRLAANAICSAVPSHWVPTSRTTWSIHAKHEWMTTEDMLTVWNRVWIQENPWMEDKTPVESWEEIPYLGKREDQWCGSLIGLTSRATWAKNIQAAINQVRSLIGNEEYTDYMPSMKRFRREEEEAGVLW

Aminopeptidase N = biological target: T2, Aminopeptidase N (Plasmodium falciparum FcB1/Columbia, UniProt O96935); test: malaria alanyl aminopeptidase activity blockers – biochemical, fluorogenic H-Leu-NHMec substrate, 1536-well (AID 1445); design: species or system Plasmodium falciparum 3D7, 3D7
T2 sequence (O96935 whole entry): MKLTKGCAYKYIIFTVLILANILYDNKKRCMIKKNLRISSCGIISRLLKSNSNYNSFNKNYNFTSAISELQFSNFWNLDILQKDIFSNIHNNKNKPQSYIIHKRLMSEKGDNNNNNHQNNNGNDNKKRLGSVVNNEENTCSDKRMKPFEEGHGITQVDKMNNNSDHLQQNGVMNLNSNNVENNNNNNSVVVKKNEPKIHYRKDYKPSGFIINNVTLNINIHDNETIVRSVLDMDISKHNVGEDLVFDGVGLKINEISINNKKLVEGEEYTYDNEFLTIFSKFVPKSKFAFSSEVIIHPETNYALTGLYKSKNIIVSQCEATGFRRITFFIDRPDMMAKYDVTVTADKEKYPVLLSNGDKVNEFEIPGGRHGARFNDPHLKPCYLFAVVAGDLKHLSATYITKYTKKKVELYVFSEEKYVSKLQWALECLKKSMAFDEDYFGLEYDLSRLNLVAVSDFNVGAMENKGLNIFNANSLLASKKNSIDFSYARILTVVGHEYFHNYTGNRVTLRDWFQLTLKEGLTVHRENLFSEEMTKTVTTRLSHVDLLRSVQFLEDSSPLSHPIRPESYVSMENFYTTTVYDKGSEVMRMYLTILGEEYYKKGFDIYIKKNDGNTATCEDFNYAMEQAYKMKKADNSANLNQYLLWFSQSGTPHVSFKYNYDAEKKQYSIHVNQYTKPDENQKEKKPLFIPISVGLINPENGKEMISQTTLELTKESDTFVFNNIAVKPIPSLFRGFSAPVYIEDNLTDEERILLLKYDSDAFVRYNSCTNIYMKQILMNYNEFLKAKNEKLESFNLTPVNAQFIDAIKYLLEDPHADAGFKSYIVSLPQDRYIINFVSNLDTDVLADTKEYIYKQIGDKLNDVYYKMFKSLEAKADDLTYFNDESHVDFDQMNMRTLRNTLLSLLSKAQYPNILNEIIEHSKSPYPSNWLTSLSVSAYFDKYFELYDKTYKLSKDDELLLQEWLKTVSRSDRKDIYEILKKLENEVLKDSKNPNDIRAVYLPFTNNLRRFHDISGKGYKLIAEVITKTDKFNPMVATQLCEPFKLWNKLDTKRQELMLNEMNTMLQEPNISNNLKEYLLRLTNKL

Vero = test: viability of Vero cells under compound – cytotoxicity control for flavivirus capping enzyme inhibitors (AID 588742); assay type: functional; settings: Chlorocebus sabaeus
[2] = biological target: T3, Short transient receptor potential channel 4 (Mus musculus, UniProt Q9QUQ5); test: block of DAMGO-driven TRPC4 calcium entry – cell-based, HEK293 TRPC4/mu-opioid, Fluo-4 calcium, dose response (AID 434942); assay type: functional;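 note: potency of inhibitors blocking the TRPC4 calcium response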
T3 sequence (Q9QUQ5 whole entry): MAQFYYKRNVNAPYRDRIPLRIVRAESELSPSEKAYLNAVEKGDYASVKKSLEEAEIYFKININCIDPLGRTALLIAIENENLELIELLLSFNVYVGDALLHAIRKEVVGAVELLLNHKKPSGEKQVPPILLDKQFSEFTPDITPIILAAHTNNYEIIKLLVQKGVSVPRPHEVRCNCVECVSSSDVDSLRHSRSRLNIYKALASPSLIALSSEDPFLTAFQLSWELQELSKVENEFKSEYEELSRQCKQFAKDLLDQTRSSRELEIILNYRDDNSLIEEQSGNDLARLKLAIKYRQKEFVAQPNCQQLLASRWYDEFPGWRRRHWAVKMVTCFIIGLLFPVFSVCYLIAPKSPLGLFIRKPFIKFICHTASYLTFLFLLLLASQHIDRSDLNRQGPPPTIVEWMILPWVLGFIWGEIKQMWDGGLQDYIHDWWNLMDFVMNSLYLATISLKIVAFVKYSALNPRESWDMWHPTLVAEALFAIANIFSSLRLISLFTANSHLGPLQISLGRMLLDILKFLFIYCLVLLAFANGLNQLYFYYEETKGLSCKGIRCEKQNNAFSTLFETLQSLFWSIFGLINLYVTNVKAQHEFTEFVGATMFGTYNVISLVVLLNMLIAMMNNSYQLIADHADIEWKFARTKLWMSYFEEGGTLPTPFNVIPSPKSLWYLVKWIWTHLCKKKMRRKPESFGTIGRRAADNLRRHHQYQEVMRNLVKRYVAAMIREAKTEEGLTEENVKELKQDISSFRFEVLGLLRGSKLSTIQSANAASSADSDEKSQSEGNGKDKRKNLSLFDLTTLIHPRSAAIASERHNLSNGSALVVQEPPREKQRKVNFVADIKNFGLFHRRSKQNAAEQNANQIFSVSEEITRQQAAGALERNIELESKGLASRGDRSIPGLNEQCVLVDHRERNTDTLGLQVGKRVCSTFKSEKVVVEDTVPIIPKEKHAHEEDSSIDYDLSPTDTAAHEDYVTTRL

[3] = biological target: T4, Corticotropin-releasing factor receptor 2/Corticotropin-releasing factor-binding protein (Homo sapiens, UniProt P24387+Q13324); test: Dose Response confirmation of uHTS hits for small molecule antagonists of the CRF-binding protein and CRF-R2 receptor complex.; assay type: functional; settings: read-out: IC50_Mean
T4 sequence (Q13324 whole entry): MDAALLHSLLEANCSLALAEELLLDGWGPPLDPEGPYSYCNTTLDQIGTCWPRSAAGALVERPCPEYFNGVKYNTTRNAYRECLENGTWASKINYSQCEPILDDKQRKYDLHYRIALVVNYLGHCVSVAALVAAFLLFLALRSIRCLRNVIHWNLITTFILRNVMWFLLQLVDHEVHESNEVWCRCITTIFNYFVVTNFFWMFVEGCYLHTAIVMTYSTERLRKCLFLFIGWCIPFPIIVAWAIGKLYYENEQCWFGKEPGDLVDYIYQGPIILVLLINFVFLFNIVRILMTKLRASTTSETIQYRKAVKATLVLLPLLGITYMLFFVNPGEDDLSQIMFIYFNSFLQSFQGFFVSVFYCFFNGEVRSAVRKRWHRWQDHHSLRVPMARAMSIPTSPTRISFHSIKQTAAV
T4 sequence (P24387 whole entry): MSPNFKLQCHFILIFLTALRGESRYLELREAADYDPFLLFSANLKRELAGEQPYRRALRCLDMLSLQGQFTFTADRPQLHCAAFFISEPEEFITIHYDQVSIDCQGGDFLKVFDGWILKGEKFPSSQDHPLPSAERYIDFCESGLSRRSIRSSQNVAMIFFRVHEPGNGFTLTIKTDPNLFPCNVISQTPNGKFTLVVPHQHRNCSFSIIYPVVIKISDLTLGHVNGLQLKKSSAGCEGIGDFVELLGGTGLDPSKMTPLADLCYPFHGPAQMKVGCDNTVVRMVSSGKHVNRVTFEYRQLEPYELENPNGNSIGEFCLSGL

[4] = biological target: T4, Corticotropin-releasing factor receptor 2/Corticotropin-releasing factor-binding protein; test: activators of CRF receptor 2 with binding protein – uHTS hits, confirmation (AID 602473); assay type: functional; settings: read-out: EC50_Mean
[5] = blockers of CRF-binding protein–CRF-R2 complex – cell-based, uHTS hits, 384-well, dose response (AID 651639); assay type: functional, Homo sapiens; settings: read-out: IC50_Mean
[6] = biological target: Potassium channel subfamily K member 9 (Homo sapiens, UniProt Q9NPC2); test: KCNK9 flux blockade, concentration-response – cell-based, FluxOR thallium flux, selectivity assay for TASK1 inhibitor project, SAR follow-up (AID 652211); assay type: functional;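 note: potency is for inhibitors of the channel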
Potassium channel subfamily K member 9, sequence (Q9NPC2 whole entry): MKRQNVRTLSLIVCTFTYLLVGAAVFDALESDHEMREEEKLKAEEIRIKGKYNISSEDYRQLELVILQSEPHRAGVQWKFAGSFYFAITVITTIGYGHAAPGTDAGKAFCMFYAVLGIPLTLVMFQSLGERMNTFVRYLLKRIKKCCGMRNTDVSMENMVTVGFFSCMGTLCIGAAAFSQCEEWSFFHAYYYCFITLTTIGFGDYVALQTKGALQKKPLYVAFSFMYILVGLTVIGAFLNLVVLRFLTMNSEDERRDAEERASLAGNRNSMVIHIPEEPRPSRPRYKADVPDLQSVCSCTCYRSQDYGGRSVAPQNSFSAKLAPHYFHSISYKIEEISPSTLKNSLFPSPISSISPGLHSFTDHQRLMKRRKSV

[7] = toxicity toward HepG2 liver cells – cell-based, plate reader, cherry-pick, antagonist series, cytotoxicity control, dose response (AID 743416); assay type: functional
[8] = viability loss in HEK293 cells – cell-based, plate reader, cherry-picked samples, cytotoxicity control, dose response (AID 743446); assay type: functional
[9] = A549 cell cytotoxicity, dose response, cytotoxicity control, plate reader, cherry-pick, antagonist series (AID 743412); assay type: functional, cell-based
[10] = blockade of melanocortin 4 receptor signaling – cell-based, plate reader, cherry pick, counter-screen for LGR2 antagonist project, dose response (AID 743444); assay type: functional;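 note: transfected HEK 293 cells stimulated with alpha-MSH peptide; potency of inhibitors of the alpha-MSH evoked signal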
[11] = blockers of bursicon-stimulated LGR2 cAMP reporter – cell-based, HEK293, CRE-luciferase reporter, cherry pick, set 2, dose response (AID 743343); assay type: functional;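 note: transfected cells were stimulated with diluted bursicon conditioned medium after compound addition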
[12] = biological target: T5, ATP-dependent translocase ABCB1 (Homo sapiens, UniProt P08183); test: P-gp JC-1 efflux blockade concentration-response – Jurkat-DNR cells, flow cytometry, set 2, dose response (AID 504569); assay type: functional; settings: read-out: EC50_MICROM_;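 note: potency of pump inhibitors that raise cellular JC-1 green fluorescence up to the nicardipine level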
T5 sequence (P08183 whole entry): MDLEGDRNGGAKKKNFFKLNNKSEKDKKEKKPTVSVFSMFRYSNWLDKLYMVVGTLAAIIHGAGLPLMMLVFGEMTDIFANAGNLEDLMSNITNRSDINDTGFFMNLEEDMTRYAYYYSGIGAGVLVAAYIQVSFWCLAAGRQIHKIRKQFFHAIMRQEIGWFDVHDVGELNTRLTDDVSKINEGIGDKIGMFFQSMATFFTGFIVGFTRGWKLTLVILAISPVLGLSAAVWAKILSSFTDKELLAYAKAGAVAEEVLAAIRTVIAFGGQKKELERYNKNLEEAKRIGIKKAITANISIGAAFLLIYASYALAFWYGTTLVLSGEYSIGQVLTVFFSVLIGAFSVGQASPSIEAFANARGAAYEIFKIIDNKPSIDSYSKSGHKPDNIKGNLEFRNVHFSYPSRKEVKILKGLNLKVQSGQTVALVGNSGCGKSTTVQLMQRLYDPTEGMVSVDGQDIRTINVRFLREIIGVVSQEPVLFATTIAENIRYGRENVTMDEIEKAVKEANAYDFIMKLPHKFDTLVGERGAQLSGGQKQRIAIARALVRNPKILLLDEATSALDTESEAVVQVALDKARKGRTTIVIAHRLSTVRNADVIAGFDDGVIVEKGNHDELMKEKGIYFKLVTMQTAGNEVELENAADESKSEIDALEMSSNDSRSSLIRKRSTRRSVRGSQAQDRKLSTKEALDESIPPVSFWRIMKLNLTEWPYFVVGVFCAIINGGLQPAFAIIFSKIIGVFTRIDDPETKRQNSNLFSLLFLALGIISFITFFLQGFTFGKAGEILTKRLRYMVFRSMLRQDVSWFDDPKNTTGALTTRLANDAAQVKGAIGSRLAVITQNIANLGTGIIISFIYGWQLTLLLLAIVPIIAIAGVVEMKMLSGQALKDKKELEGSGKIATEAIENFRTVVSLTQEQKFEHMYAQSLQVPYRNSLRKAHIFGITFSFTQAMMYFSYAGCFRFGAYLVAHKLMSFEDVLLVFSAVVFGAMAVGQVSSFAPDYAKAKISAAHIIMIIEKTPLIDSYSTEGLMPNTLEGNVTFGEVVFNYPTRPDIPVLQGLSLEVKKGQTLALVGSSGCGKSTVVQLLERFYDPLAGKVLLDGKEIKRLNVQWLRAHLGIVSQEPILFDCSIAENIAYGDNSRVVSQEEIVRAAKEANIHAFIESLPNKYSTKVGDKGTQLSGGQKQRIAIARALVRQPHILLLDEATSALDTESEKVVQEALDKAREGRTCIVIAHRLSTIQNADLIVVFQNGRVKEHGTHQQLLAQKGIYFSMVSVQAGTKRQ

[13] = biological target: T5, ATP-dependent translocase ABCB1; test: inhibition of BCRP-mediated JC-1 efflux – Ig-MXP3 cells, flow cytometry, set 2, dose response (AID 504566); assay type: functional; settings: read-out: EC50_MICROM_;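 note: flow cytometry median green fluorescence of retained JC-1 dye; potency of efflux pump inhibition measured as rising substrate retention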
HEK293 = test: EBV LMP1 TES2 canonical NF-kB signalling blockers – cell-based, HEK293, luciferase, cherry-pick, dose response (AID 588343); assay type: functional; settings: Homo sapiens
[14] = biological target: Luciferin 4-monooxygenase (Photinus pyralis, UniProt P08659); test: Counter Screen for Luciferase-based Assay Positives. [Related pubchem assays: 620, 618, 411 ]
Luciferin 4-monooxygenase, sequence (P08659 whole entry): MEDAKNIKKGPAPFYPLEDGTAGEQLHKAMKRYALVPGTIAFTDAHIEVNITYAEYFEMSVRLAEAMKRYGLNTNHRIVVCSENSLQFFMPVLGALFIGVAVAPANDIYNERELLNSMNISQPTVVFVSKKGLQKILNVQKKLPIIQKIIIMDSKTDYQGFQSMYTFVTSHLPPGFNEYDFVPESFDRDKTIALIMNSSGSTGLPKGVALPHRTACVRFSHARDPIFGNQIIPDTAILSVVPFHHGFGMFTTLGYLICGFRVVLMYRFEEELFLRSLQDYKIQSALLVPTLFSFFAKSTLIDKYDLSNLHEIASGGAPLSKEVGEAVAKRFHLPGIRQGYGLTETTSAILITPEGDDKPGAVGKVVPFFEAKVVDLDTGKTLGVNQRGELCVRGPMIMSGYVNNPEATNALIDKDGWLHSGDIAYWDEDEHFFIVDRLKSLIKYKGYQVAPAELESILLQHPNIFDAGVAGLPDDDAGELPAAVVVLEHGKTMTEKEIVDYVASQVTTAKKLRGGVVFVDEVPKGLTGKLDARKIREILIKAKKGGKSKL

HT-1080 = test: HT1080 cell viability loss – fluorescence readout (AID 620); assay type: functional, cell-based; settings: Homo sapiens
Protein skinhead-1 = biological target: T6, Protein skinhead-1 (Caenorhabditis elegans, UniProt P34707); assay type: functional
T6 sequence (P34707 whole entry): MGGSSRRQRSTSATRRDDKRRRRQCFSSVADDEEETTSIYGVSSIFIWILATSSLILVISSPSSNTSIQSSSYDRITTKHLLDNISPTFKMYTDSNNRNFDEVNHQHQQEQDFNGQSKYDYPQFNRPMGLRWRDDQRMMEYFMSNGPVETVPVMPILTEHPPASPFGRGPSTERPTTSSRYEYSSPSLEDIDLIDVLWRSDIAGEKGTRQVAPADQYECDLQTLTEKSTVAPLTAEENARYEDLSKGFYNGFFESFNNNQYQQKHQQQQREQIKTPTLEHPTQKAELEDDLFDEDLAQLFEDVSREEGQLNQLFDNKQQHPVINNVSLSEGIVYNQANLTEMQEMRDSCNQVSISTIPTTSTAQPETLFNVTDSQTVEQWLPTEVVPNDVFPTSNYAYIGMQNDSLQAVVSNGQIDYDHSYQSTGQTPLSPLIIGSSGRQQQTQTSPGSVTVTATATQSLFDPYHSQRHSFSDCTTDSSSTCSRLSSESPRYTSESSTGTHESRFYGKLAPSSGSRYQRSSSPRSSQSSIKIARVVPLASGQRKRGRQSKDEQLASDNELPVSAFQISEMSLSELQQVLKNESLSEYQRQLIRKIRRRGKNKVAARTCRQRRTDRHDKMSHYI

Brc1ccccc1C1NC(c2ccccc2)=NO1 (stereo not given)
EC50 [1]: > 67.5 µM (inactive)
EC50 (cells): > 67.5 µM (inactive)

COc1cc(/C=C2\SC(=S)N(NS(=O)(=O)c3ccc(C)cc3)C2=O)cc(OC)c1OC
IC50 (Genome polyprotein): 37.4 µM (active)
IC50 (Aminopeptidase N): 33.1 µM (active)
CC50 (Vero): > 40 µM (active)
EC50 [2]: 6.68 µM (active)
IC50 [3]: 12.6 µM (active)
EC50 [4]: > 53 µM (inactive)
IC50 [5]: 10.4 µM (active)

COc1ccccc1C(=O)Nc1cccc(NC(=O)c2ccccc2C)c1
IC50 [6]: 3.49 µM (active)

Cc1cc2ncc(-c3cccs3)nc2cc1C
AC50 [7]: > 52 µM (inactive)
AC50 [8]: 49.4 µM (active)
AC50 [9]: 25.7 µM (active)
EC50 [1]: > 67.6 µM (inactive)
EC50 (cells): > 67.6 µM (inactive)
AC50 [10]: 4.22 µM (active)
AC50 [11]: 4.64 µM (active)

Cc1nc2cc(-c3cccc(Cl)c3)nn2c(N2CCN(C(=O)c3ccco3)CC2)c1C
EC50 [12]: 7.87 µM (active)
EC50 [13]: 3.41 µM (active)

COc1ccc(-c2cc3nc(C)c(C)c(N4CCN(C(=O)c5ccsc5)CC4)n3n2)cc1
EC50 [12]: 3.83 µM (active)
EC50 [13]: 1.79 µM (active)

O=C(c1ccsc1)N1CCN(c2cc(-c3ccccc3)nc3cc(-c4cccc(Cl)c4)nn23)CC1
EC50 [12]: 3.4 µM (active)
EC50 [13]: 1.63 µM (active)

O=C(Nc1cccc(NC(=O)c2ccccc2C(F)(F)F)c1)c1ccccc1
IC50 [6]: 7.21 µM (active)

COc1ccccc1C(=O)Nc1cccc(NC(=O)c2ccccc2OC(F)(F)F)c1
IC50 [6]: 1.17 µM (active)

Brc1ccc(-c2nc(-c3ccccn3)no2)o1
AC50 [7]: > 52 µM (inactive)
AC50 [9]: > 52 µM (inactive)
EC50 [1]: > 67.5 µM (inactive)
AC50 (HEK293): 2.33 µM (active)
EC50 (cells): > 67.5 µM (inactive)
AC50 [10]: 3.84 µM (active)
EC50 [14]: 2.58 µM (active)
EC50 (HT-1080): > 50 µM (not active)
IC50 (Protein skinhead-1): 72.1 µM (inactive)
AC50 [11]: 2.92 µM (active)
